Here are results for 2 compounds from patent US20260216347A1, “Substituted Imidazo-Based Compounds as Ligand Directed Degraders of IRAK3” (Celgene Corporation, priority 2022, published 2026).

Test [1] has as its target T1, IRAK3 (Homo sapiens, UniProt Q9Y616).
T1 construct: IRAK Endogenous HTRF Degradation Assay; endogenous in cells
T1 sequence (Q9Y616 1-596): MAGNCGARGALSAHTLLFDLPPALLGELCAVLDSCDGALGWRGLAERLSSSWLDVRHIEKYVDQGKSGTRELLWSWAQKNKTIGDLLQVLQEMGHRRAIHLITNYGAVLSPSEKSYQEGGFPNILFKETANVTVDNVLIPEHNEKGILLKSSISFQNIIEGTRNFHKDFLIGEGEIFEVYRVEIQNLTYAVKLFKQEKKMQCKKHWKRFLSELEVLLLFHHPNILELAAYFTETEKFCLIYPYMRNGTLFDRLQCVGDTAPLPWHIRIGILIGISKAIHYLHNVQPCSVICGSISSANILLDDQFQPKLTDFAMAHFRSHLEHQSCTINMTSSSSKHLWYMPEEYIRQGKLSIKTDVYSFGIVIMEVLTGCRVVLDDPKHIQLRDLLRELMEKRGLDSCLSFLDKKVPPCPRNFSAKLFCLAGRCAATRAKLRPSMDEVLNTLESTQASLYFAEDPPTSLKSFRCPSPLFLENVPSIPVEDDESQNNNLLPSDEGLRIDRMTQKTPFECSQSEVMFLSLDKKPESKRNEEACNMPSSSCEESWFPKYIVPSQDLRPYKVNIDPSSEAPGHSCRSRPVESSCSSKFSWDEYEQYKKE
The experiment in a line: IRAK endogenous HTRF degradation assay (Total-IRAK3 HTRF kit). It counts as cell-based. Particulars: overnight incubation, lowest percentage of protein remaining. The method in brief: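 Cells (~50 k) incubated overnight with 3-fold serial dilutions of compound, then lysed; total IRAK3 read by HTRF (665/615 nm ratio ×10,000), normalized to DMSO as 100%. EC50 from four-parameter logistic fit; Dmax = 100 − Ymin (lowest % protein remaining); DC50 = concentration giving 50% degradation.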

The target in test [2] is T1, IRAK3. The experiment in a line: IRAK3 biochemical binding assay (LanthaScreen Eu Kinase Binding, TR-FRET). A digest of the protocol: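 TR-FRET tracer-displacement binding with 10 nM IRAK3, 2 nM Eu-anti-GST antibody and 10 nM tracer in 50 mM HEPES pH 7.4, MgCl2, 1 mM EGTA, 0.01% Brij-35. Compounds in 3-fold dilutions, 1 h at room temperature. 665/615 nm ratio gave % inhibition; IC50 and Hill slope from dose-response fit.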

On to `Cc1cc(-c2cnc(Nc3cnn([C@H]4CCN(CCN5CCN(c6ccc(C7CCC(=O)NC7=O)cc6)CC5)[C@@H](C)C4)c3)c3nccn23)c(F)cc1F` (stereo partly drawn) [Compound 26, 3-(4-(4-(2-((2S,4S)-4-(4-((5-(2,4-difluoro-5-methylphenyl)imdazo [1,2-a]pyrazin-8-yl)amino)-1H-pyrazol-1-yl)-2-methylpiperidin-1-yl)ethyl)piperazin-1-yl)phenyl) piperidine-2,6-dione], for which, in test [1], the “IRAK3 HTRF degradation Ymin” value amounted to 12%. In addition, the IC50 in test [2] stood at 1.1 nM.

Consider `Cc1cc(-c2cnc(Nc3cnn([C@H]4CC[C@@H](CCN5CCN(c6ccc(C7CCC(=O)NC7=O)cc6)C[C@@H]5C)CC4)c3)c3nccn23)c(F)cc1F` (stereo partly drawn) [Compound 27, 3-(4-((S)-4-(2-((cis)-4-(4-((5-(2,4-difluoro-5-methylphenyl)imidazo[1,2-a]pyrazin-8-yl)amino)-1H-pyrazol-1-yl)cyclohexyl)ethyl)-3-methylpiperazin-1-yl)phenyl) piperidine-2,6-dione], for which, in test [1], the “IRAK3 HTRF degradation Ymin” value was determined as 14%. Also, the half-maximal inhibitory concentration (IC50) in test [2] came out at 7.6 nM.
